One data set in a line: Human plasma stability. In kind it is in vitro ADME. As to conditions: plasma; for % Remaining @ 2 h: 5 μM. The protocol: Protocol 1: Studies were carried out in human plasma. All plasma was obtained from Bioreclamation and collected on sodium heparin. Plasma was adjusted to pH 7.4. A DMSO stock was first prepared for the test compound. An aliquot of the DMSO solution was dosed into 1 mL of plasma, which had been pre-warmed to 37° C., at a final test compound concentration of 1 μM. The vials were kept in a benchtop Thermomixer® for the duration of the experiment. Aliquots (100 μL) were taken at each time point (0, 15, 30, 60, and 120 minutes) and added to 96-well plates which had been pre-filled with 300 μL of acetonitrile. Samples were stored at 4° C. until the end of the experiment. After the final time point was sampled, the plate was mixed and then centrifuged at 3,000 rpm for 10 minutes. Aliquots of the supernatant were removed, diluted 1:1 into distilled water, and analyzed by LC-MS/MS. The peak area response ratio to internal standard (PARR) of the compound at 15, 30, 60 and 120 minutes was compared to the PARR at time 0 to determine the percent of test compound remaining at each time point. Half-lives were calculated using GraphPad software, fitting to a single-phase exponential decay equation.
Protocol 2: Studies were carried out in plasma. Plasma was prepared under approval of IRB and IACUC on sodium heparin. The pH of plasma was monitored and used within the range of pH 7.4 to pH 8.0. DMSO stocks were prepared for the test compounds. Aliquots of the DMSO solutions were diluted to 0.05 mM by 0.05 mM Sodium phosphate buffer with 0.5% BSA. Then 10 μL of 0.05 mM solutions were dosed into 90 μL of plasma in duplicates (n=2), which had been pre-warmed to 37° C., at a final test compound concentration of 5 μM. The plates were kept in a 37° C. water bath for the duration of the experiment. At each time point (0, 5, 15, 30, 45, 60, and 120 minutes), 400 μL of acetonitrile was added into corresponding wells. After the final time point was sampled, the plates were shaken at the vibrator (IKA, MTS 2/4) for 10 min (600 rpm/min) and then centrifuged at 5594 g for 15 min (Thermo Multifuge×3R). Aliquots of the supernatant were removed, diluted 1:1 into distilled water, and analyzed by LC-MS/MS. The peak area response ratio to internal standard (PARR) of the compounds at 5, 15, 30, 45, 60, and 120 minutes was compared to the PARR at time 0 to determine the percent of test compound remaining at each time point. Half-lives were calculated using Excel software, fitting to a single-phase exponential decay equation.

The target of data set [1] is rat brain nicotinic receptor (α7 NAChR) (Rattus norvegicus (Rat), UniProt Q05941). In kind it is binding.
Data set [2] is described as follows: Metabolic stability assay in human liver microsomes (HLM). As to conditions: 1 μM. In kind it is in vitro ADME. The protocol:
(§1) Protocol 1: Studies were carried out in human and rat liver microsomes (“HLM” and “RLM,” respectively). Human and rat liver microsomes were purchased from BD Gentest. DMSO stocks were prepared for the test compounds. Aliquots of the DMSO solutions were diluted to 0.5 mM by acetonitrile, then further diluted by liver microsomes/buffer to 1.5 μM. 30 μL of 1.5 μM solutions were mixed with 15 μL of 6 mM NADPH, which had been pre-warmed to 37° C., at a final test compound concentration of 1 μM. The plates were kept in a 37° C. water bath for the duration of the experiment. At each time point (0, 5, 15, 30, 45 minutes), 135 μL of acetonitrile was added into corresponding wells. After the final time point was sampled, the plates were shaken at a vibrator (IKA, MTS 2/4) for 10 min (600 rpm/min) and then centrifuged at 5594 g for 15 min (Thermo Multifuge×3R). Aliquots of the supernatant were removed, diluted 1:1 into distilled water, and analyzed by LC-MS/MS. The peak area response ratio to internal standard (PARR) of the compounds at 5, 15, 30, 45 minutes was compared to the PARR at time 0 to determine the percent of test compound remaining at each time point. Half-lives were calculated using Excel software, fitting to a single-phase exponential decay equation.
(§2) Protocol 2: Studies were carried out in human and rat liver microsomes. Buffer solutions were prepared as follows: Buffer A: 1.0 L of 0.1 M monobasic Potassium Phosphate buffer containing 1.0 mM EDTA; Buffer B: 1.0 L of 0.1 M Dibasic Potassium Phosphate buffer containing 1.0 mM EDTA; Buffer C: 0.1 M Potassium Phosphate buffer, 1.0 mM EDTA, pH 7.4 by titrating 700 mL of buffer B with buffer A while monitoring with a pH meter.
(§3) Reference compound (Ketanserin) and test compound spiking solutions were prepared as follows: 500 μM spiking solution: add 10 μL of 10 mM DMSO stock solution into 190 μL ACN; 1.5 μM spiking solution in microsomes (0.75 mg/mL): add 1.5 μL of 500 μM spiking solution and 18.75 μL of 20 mg/mL liver microsomes into 479.75 μL of Buffer C.
(§4) NADPH stock solution (6 mM) was prepared by dissolving NADPH into buffer C.
(§5) Assay procedure: 30 μL of 1.5 μM spiking solution containing 0.75 mg/mL microsomes solution was dispensed to the wells designated for […]. The plate was pre-incubated at 37° C. for 10 minutes. 15 μL of NADPH stock solution (6 mM) was added to the wells designated as Time 45, and the timer was started. At 30 mM, 15 mM, and 5 mM, 15 μL NADPH stock solution (6 mM) was added to the wells, respectively. At the end of incubation (0 mM), 135 μL of ACN containing IS was added to all the wells. Then 15 μL of NADPH stock solution (6 mM) was added to the wells designated as Time 0. After quenching, the reaction mixtures were centrifuged at 3220 g for […]. Following centrifugation, 50 μL of the supernatant was transferred from each well into a 96-well sample plate containing 50 μL of ultra-pure water (Millipore) for LC/MS analysis. The peak area response (PARR) ratio to internal standard of the compounds at 5, 15, 30, and 45 minutes was compared to the PARR at time 0 to determine the percent of test compound remaining at each time point. Half-lives were calculated using Excel software, fitting to a single-phase exponential decay equation.
(Liver microsomes are vesicles of endoplasmic reticulum, rich in cytochrome P450 enzymes.)

A short description of data set [3]: Metabolic stability assay in rat liver microsomes (RLM). Format: in vitro ADME. As to conditions: 1 μM. The protocol:
as §1, §2, §3, §4, §5

[4] abbreviates: Protocol No. 1, human liver microsomes.
The mark [5] stands for this setting: Protocol No. 1, rat liver microsomes.

The structures appear in SMILES notation.

Chain of rat brain nicotinic receptor (α7 NAChR) (Q05941 23-502 limits assumed): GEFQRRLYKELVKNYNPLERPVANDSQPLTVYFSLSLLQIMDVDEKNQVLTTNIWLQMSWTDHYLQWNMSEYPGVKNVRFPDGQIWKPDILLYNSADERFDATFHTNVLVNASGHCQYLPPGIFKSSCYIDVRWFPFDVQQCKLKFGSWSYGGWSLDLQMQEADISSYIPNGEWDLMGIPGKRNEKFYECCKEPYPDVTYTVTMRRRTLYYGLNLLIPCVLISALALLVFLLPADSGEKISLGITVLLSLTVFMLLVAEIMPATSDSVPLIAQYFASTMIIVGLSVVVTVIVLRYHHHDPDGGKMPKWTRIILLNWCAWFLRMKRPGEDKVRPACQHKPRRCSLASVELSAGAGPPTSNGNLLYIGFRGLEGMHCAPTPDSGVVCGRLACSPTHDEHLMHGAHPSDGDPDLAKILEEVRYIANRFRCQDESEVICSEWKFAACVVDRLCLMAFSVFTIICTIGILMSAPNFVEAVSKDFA

As to `O=C(OCC12CCN(CC1)CC2)c1c[nH]c2cccc(C3CC3)c12` [Compound 61, Quinuclidin-4-ylmethyl 4-cyclopropyl-1H-indole-3-carboxylate], the “% Remaining @ 2 h” value in the data set “Human plasma stability” (human, 2 h) is on record as 93.59%. Also, in data set [1], it took 1890 nM to reach half-maximal inhibition (IC50) and the affinity, expressed as Ki, was 1620 nM. In data set [2] (human, microsomes), this compound had an HLM of 10.81 mL/min/kg. The RLM in data set [3] (rat, microsomes) was determined as 434.65 mL/min/kg.
On to `Cl.O=C(OCC12CCN(CC1)CC2)c1c[nH]c2cc(F)cc(Cl)c12` [Compound 64, quinuclidin-4-ylmethyl 4-chloro-6-fluoro-1H-indole-3-carboxylate hydrochloride], for which the “% Remaining @ 2 h” value in the data set “Human plasma stability” (Protocol No. 2, 37° C.) turned out to be 76.61%. Further, in data set [1], inhibition was half-maximal at 337 nM (IC50) and the Ki stood at 291 nM. The compound further came in with an HLM in data set [2] (setting [4]) of 2.7474 mL/min/kg. Moreover, the RLM in data set [3] (setting [5]) was found to be 77.4932 mL/min/kg.
As for `Cc1cc2[nH]cc(C(=O)OCC34CCN(CC3)CC4)c2cc1Cl.Cl` [Compound 66, quinuclidin-4-ylmethyl 5-chloro-6-methyl-1H-indole-3-carboxylate hydrochloride], the “% Remaining @ 2 h” value in “Human plasma stability” (Protocol No. 2, 37° C.) is reported as 71.77%. In data set [1], this compound returned an IC50 of 1190 nM and a Ki of 1010 nM. This compound had an HLM in data set [2] (setting [4]) of 0 mL/min/kg. The RLM in data set [3] (setting [5]) is given as 934.845 mL/min/kg.
In the case of `O=C(OCC12CCN(CC1)CC2)c1c[nH]c2ccc(F)c(Br)c12` [Compound 67, quinuclidin-4-ylmethyl 4-bromo-5-fluoro-1H-indole-3-carboxylate], the “% Remaining @ 2 h” value in the data set “Human plasma stability” (human, 2 h) was found to be 98.92%. In data set [1], the IC50 was 201 nM and the Ki was determined as 173 nM. The compound also registered an HLM in data set [2] (human, microsomes) of 6.65 mL/min/kg. Moreover, the RLM in data set [3] (rat, microsomes) worked out at 594.86 mL/min/kg.
Regarding `Cc1ccc2[nH]cc(C(=O)OCC34CCN(CC3)CC4)c2c1Br` [Compound 68, quinuclidin-4-ylmethyl 4-bromo-5-methyl-1H-indole-3-carboxylate], the T1/2 entry in “Human plasma stability” (human) is reported as “∞”. Moreover, in the data set “Human plasma stability” (human, 2 h), the “% Remaining @ 2 h” value came out at 103.13%. For the same compound, in data set [1], half-maximal inhibition (IC50) required 266 nM and the Ki stood at 229 nM. In data set [2] (human, microsomes), this compound gave an HLM of 3.48 mL/min/kg. Also, the RLM in data set [3] (rat, microsomes) was determined as 1271.39 mL/min/kg.
Take `COc1cc2c(C(=O)OCC34CCN(CC3)CC4)c[nH]c2cc1Cl` [Compound 69, quinuclidin-4-ylmethyl 6-chloro-5-methoxy-1H-indole-3-carboxylate]: the “% Remaining @ 2 h” value in “Human plasma stability” (human, 2 h) stood at 78.66%. In addition, in data set [1], it took 394 nM to reach half-maximal inhibition (IC50) and the Ki is 340 nM. Moreover, in data set [2] (human, microsomes), the HLM is recorded as 8.8 mL/min/kg. This compound yielded an RLM in data set [3] (rat, microsomes) of 238.87 mL/min/kg.
As to `Cc1ccc2[nH]cc(C(=O)OCC34CCN(CC3)CC4)c2c1C` [Compound 70, quinuclidin-4-ylmethyl 4,5-dimethyl-1H-indole-3-carboxylate], in the data set “Human plasma stability” (human, 2 h), the “% Remaining @ 2 h” value came to 71.56%. Besides, in data set [1], the IC50 amounted to 315 nM and the affinity corresponds to a Ki of 272 nM. In data set [2] (human, microsomes), this compound came in with an HLM of 0 mL/min/kg. In data set [3] (rat, microsomes), this compound showed an RLM of 1349.06 mL/min/kg.
`Cl.O=C(OCC12CCN(CC1)CC2)c1c[nH]c2cc(Cl)cc(Cl)c12` [Compound 71, quinuclidin-4-ylmethyl 4,6-dichloro-1H-indole-3-carboxylate hydrochloride]: the “% Remaining @ 2 h” value in “Human plasma stability” (Protocol No. 2, 37° C.) came out at 72.03%. Further, in data set [1], it took 457 nM to reach half-maximal inhibition (IC50) and the affinity corresponds to a Ki of 394 nM. Further, the HLM in data set [2] (setting [4]) is 6.768 mL/min/kg. For the same compound, the RLM in data set [3] (setting [5]) is on record as 121.175 mL/min/kg.
On to `COc1c(C)ccc2[nH]cc(C(=O)OCC34CCN(CC3)CC4)c12` [Compound 75, quinuclidin-4-ylmethyl 4-methoxy-5-methyl-1H-indole-3-carboxylate], for which the T1/2 result in “Human plasma stability” (human) is reported as “∞”. Besides, the “% Remaining @ 2 h” value in “Human plasma stability” (human, 2 h) is given as 120.98%. In addition, in data set [1], the IC50 is 52.5 nM and the Ki was determined as 45 nM. Moreover, the HLM in data set [2] (human, microsomes) was found to be 5.749 mL/min/kg. This compound gave an RLM in data set [3] (rat, microsomes) of 474.267 mL/min/kg.
For the compound `COc1cc2c(C(=O)OCC34CCN(CC3)CC4)c[nH]c2cc1C#N` [Compound 76, quinuclidin-4-ylmethyl 6-cyano-5-methoxy-1H-indole-3-carboxylate], in the data set “Human plasma stability” (human, 2 h), the “% Remaining @ 2 h” value was determined as 72.92%. In data set [1], this compound displayed a 50% inhibitory concentration (IC50) of 643 nM and a Ki of 552 nM. Besides, the HLM in data set [2] (human, microsomes) is reported as 20.5897 mL/min/kg. The RLM in data set [3] (rat, microsomes) is reported as 41.0701 mL/min/kg.
For `COc1cc(C#N)cc2[nH]cc(C(=O)OCC34CCN(CC3)CC4)c12` [Compound 77, quinuclidin-4-ylmethyl 6-cyano-4-methoxy-1H-indole-3-carboxylate], the “% Remaining @ 2 h” value in “Human plasma stability” (human, 2 h) is listed as 71.03%. For the same compound, in data set [1], 423 nM corresponded to half-maximal inhibition (IC50) and affinity was put at a Ki of 363 nM. Further, in data set [2] (human, microsomes), the HLM amounted to 10.4452 mL/min/kg. For the same compound, the RLM in data set [3] (rat, microsomes) stood at 87.668 mL/min/kg.
Take `COc1cc2c(C(=O)OCC34CCN(CC3)CC4)c[nH]c2cc1C.Cl` [Compound 79, quinuclidin-4-ylmethyl 5-methoxy-6-methyl-1H-indole-3-carboxylate hydrochloride]: the “% Remaining @ 2 h” value in the data set “Human plasma stability” (Protocol No. 2, 37° C.) is recorded as 56.12%. Further, the HLM in data set [2] (setting [4]) was 10.72 mL/min/kg. The RLM in data set [3] (setting [5]) is reported as 576.18 mL/min/kg.
Regarding `O=C(OCC12CCN(CC1)CC2)c1c[nH]c2ccc3c(c12)OCCO3` [Compound 81, quinuclidin-4-ylmethyl 2,3-dihydro-7H-[1,4]dioxino[2,3-e]indole-9-carboxylate], the “% Remaining @ 2 h” value in “Human plasma stability” (human, 2 h) turned out to be 70.89%. In data set [2] (human, microsomes), this compound gave an HLM of 5.94 mL/min/kg. For the same compound, the RLM in data set [3] (rat, microsomes) is 75.96 mL/min/kg.
As for `COc1cc2c(C(=O)OCC34CCN(CC3)CC4)c[nH]c2cc1O` [Compound 86, quinuclidin-4-ylmethyl 6-hydroxy-5-methoxy-1H-indole-3-carboxylate], the “% Remaining @ 2 h” value in “Human plasma stability” (human, 2 h) came out at 22.88%. The HLM in data set [2] (human, microsomes) is reported as 7.35 mL/min/kg. In data set [3] (rat, microsomes), this compound showed an RLM of 17.38 mL/min/kg.

As a reminder, the IC50 is the concentration that gives 50% inhibition. A lower IC50 goes with greater potency. For orientation: Ki means a measure of affinity in units of concentration, obtained from inhibition or displacement. Higher therefore signals lower affinity.

The values above are taken from patent US9434724B2, “Quinuclidines for modulating alpha 7 activity” (priority 2014, dated 2016).
